Source: US8952024B2, “Herbicidal pyrimidone derivatives” (E I du Pont de Nemours and Company, priority 2009, dated 2015)
Read-outs that look alike come from different tables or passages of the source.

Experiments:
Assay in all cases: Test B pre-/postemergence plant response
Format in all cases: in vivo
[1] = tested on: Italian ryegrass (Lolium multiflorum); details: for pest or weed control at 125 g/ha: 125 g ai/ha
Summary of the method: (§1)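 Pre-em in loam/sand; post-em at 1–4 leaf (2–18 cm) in peat mix. Solvent + surfactant formulation. Greenhouse 13–15 d; visual % control vs untreated, 0–100.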

[2] = tested on: bermudagrass (Cynodon dactylon); details: for pest or weed control at 31 g/ha: 31 g ai/ha; for pest or weed control at 125 g/ha: 125 g ai/ha
Summary of the method: as §1

[3] = tested on: blackgrass (Alopecurus myosuroides); details: for pest or weed control at 31 g/ha: 31 g ai/ha; for pest or weed control at 125 g/ha: 125 g ai/ha
Summary of the method: as §1

[4] = tested on: corn (Zea mays); details: for Corn plant response rating (crop injury, 0 = no effect, 100 = complete kill) at 31 g/ha: 31 g ai/ha; for Corn plant response rating (crop injury, 0 = no effect, 100 = complete kill) at 125 g/ha: 125 g ai/ha
Summary of the method: as §1

[5] = tested on: downy bromegrass (Bromus tectorum); details: for pest or weed control at 31 g/ha: 31 g ai/ha; for pest or weed control at 125 g/ha: 125 g ai/ha
Summary of the method: as §1

[6] = tested on: giant foxtail (Setaria faberii); details: for pest or weed control at 31 g/ha: 31 g ai/ha; for pest or weed control at 125 g/ha: 125 g ai/ha
Summary of the method: as §1

[7] = tested on: goosegrass (Eleusine indica); details: for pest or weed control at 31 g/ha: 31 g ai/ha; for pest or weed control at 125 g/ha: 125 g ai/ha
Summary of the method: as §1

[8] = tested on: green foxtail (Setaria viridis)
Summary of the method: as §1

[9] = 62 g ai/ha, postemergence, 0 is no effect, 100 is complete control, 13 to 15 days
[10] = Preemergence, 250 g ai/ha, 0 to 100 scale

O=C1CCCC(O)=C1C(=O)c1cnc(-c2cccnc2)n(-c2ccccc2)c1=O [Compound 113, 5-[(2-hydroxy-6-oxo-1-cyclohexen-1-yl)carbonyl]-3-phenyl-2-(3-pyridinyl)-4(3H)-pyrimidone]
Ryegrass, Italian plant response rating (0 to 100 scale) [1, 9]: 45
pest or weed control at 125 g/ha ([1]; Lolium multiflorum, post-emergence, Postemergence, scale 0 to 100 (0 no effect, 100 complete control), read-out: Plant response rating, Ryegrass, Italian): 50%
pest or weed control at 250 g/ha ([1]; Lolium multiflorum, post-emergence, Postemergence, 250 g ai/ha, scale 0 to 100 (0 no effect, 100 complete control), read-out: Plant response rating, Ryegrass, Italian): 85%
pest or weed control at 31 g/ha ([1]; Lolium multiflorum, pre-emergence, Preemergence, 31 g ai/ha, scale 0 to 100 (0 no effect, 100 complete control), read-out: Plant response rating, Ryegrass, Italian): 0%
pest or weed control at 62 g/ha ([1]; Lolium multiflorum, pre-emergence, Preemergence, 62 g ai/ha, scale 0 to 100 (0 no effect, 100 complete control), read-out: Plant response rating, Ryegrass, Italian): 5%
pest or weed control at 125 g/ha ([1]; Lolium multiflorum, pre-emergence, Preemergence, scale 0 to 100, 0 no effect, 100 complete control, read-out: Plant response rating, Ryegrass, Italian): 5%
Ryegrass, Italian plant response rating [1, 10]: 40
Bermudagrass plant response rating (0 to 100 scale) [2, 9]: 90
pest or weed control at 31 g/ha ([2]; Cynodon dactylon, post-emergence, postemergence, scale 0 to 100, 0 is no effect, 100 is complete control, read-out: Plant response rating, Bermudagrass): 80%
pest or weed control at 125 g/ha ([2]; Cynodon dactylon, post-emergence, Postemergence, scale 0 to 100 (0 no effect, 100 complete control), read-out: Plant response rating, Bermudagrass): 95%
pest or weed control at 250 g/ha ([2]; Cynodon dactylon, post-emergence, Postemergence, 250 g ai/ha, scale 0 to 100 (0 no effect, 100 complete control), read-out: Plant response rating, Bermudagrass): 95%
pest or weed control at 31 g/ha ([2]; Cynodon dactylon, pre-emergence, Preemergence, scale 0 to 100 (0 no effect, 100 complete control), read-out: Plant response rating, Bermudagrass): 95%
pest or weed control at 62 g/ha ([2]; Cynodon dactylon, pre-emergence, Preemergence, 62 g ai/ha, scale 0 to 100, 0 no effect, 100 complete control, read-out: Plant response rating, Bermudagrass): 95%
pest or weed control at 125 g/ha ([2]; Cynodon dactylon, pre-emergence, Preemergence, scale 0 to 100, 0 no effect, 100 complete control, read-out: Plant response rating, Bermudagrass): 100%
Bermudagrass plant response rating ([2]; Preemergence, 250 g ai/ha, 0 to 100 scale, 0 no effect, 100 complete control): 100
Blackgrass plant response rating (0 to 100 scale) [3, 9]: 0
pest or weed control at 31 g/ha ([3]; Alopecurus myosuroides, post-emergence, 360 h, postemergence, scale 0 to 100, 0 is no effect, 100 is complete control, read-out: Plant response rating, Blackgrass): 0%
pest or weed control at 125 g/ha ([3]; Alopecurus myosuroides, post-emergence, 360 h, Postemergence, scale 0 to 100 (0 no effect, 100 complete control), read-out: Plant response rating, Blackgrass): 5%
pest or weed control at 250 g/ha ([3]; Alopecurus myosuroides, post-emergence, 360 h, Postemergence, 250 g ai/ha, scale 0 to 100 (0 no effect, 100 complete control), read-out: Plant response rating, Blackgrass): 5%
pest or weed control at 31 g/ha ([3]; Alopecurus myosuroides, pre-emergence, 360 h, Preemergence, scale 0 to 100 (0 no effect, 100 complete control), read-out: Plant response rating, Blackgrass): 0%
pest or weed control at 62 g/ha ([3]; Alopecurus myosuroides, pre-emergence, 360 h, Preemergence, 62 g ai/ha, scale 0 to 100, 0 no effect, 100 complete control, read-out: Plant response rating, Blackgrass): 0%
pest or weed control at 125 g/ha ([3]; Alopecurus myosuroides, pre-emergence, 360 h, Preemergence, scale 0 to 100, 0 no effect, 100 complete control, read-out: Plant response rating, Blackgrass): 0%
Blackgrass plant response rating [3, 10]: 20
Corn plant response rating (0 to 100 scale) [4, 9]: 60
Corn plant response rating [4, 10]: 0
Corn plant response rating (crop injury, 0 = no effect, 100 = complete kill) at 31 g/ha ([4]; Zea mays, post-emergence, postemergence, scale 0 to 100, 0 is no effect, 100 is complete control): 25%
Corn plant response rating (crop injury, 0 = no effect, 100 = complete kill) at 125 g/ha ([4]; Zea mays, post-emergence, Postemergence, scale 0 to 100 (0 no effect, 100 complete control)): 80%
Corn plant response rating (crop injury, 0 = no effect, 100 = complete kill) at 250 g/ha ([4]; Zea mays, post-emergence, Postemergence, 250 g ai/ha, scale 0 to 100 (0 no effect, 100 complete control)): 85%
Corn plant response rating (crop injury, 0 = no effect, 100 = complete kill) at 31 g/ha ([4]; Zea mays, pre-emergence, Preemergence, scale 0 to 100 (0 no effect, 100 complete control)): 0%
Corn plant response rating (crop injury, 0 = no effect, 100 = complete kill) at 62 g/ha ([4]; Zea mays, pre-emergence, Preemergence, 62 g ai/ha, scale 0 to 100, 0 no effect, 100 complete control): 0%
Corn plant response rating (crop injury, 0 = no effect, 100 = complete kill) at 125 g/ha ([4]; Zea mays, pre-emergence, Preemergence, scale 0 to 100, 0 no effect, 100 complete control): 0%
Bromegrass, Downy plant response rating (0 to 100 scale) [5, 9]: 60
pest or weed control at 31 g/ha ([5]; Bromus tectorum, post-emergence, postemergence, scale 0 to 100, 0 is no effect, 100 is complete control, read-out: Plant response rating, Bromegrass, Downy): 5%
pest or weed control at 125 g/ha ([5]; Bromus tectorum, post-emergence, Postemergence, scale 0 to 100 (0 no effect, 100 complete control), read-out: Plant response rating, Bromegrass, Downy): 80%
pest or weed control at 250 g/ha ([5]; Bromus tectorum, post-emergence, Postemergence, 250 g ai/ha, scale 0 to 100 (0 no effect, 100 complete control), read-out: Plant response rating, Bromegrass, Downy): 90%
pest or weed control at 31 g/ha ([5]; Bromus tectorum, pre-emergence, Preemergence, scale 0 to 100 (0 no effect, 100 complete control), read-out: Plant response rating, Bromegrass, Downy): 0%
pest or weed control at 62 g/ha ([5]; Bromus tectorum, pre-emergence, Preemergence, 62 g ai/ha, scale 0 to 100, 0 no effect, 100 complete control, read-out: Plant response rating, Bromegrass, Downy): 10%
pest or weed control at 125 g/ha ([5]; Bromus tectorum, pre-emergence, Preemergence, scale 0 to 100, 0 no effect, 100 complete control, read-out: Plant response rating, Bromegrass, Downy): 10%
Bromegrass, Downy plant response rating [5, 10]: 10
Foxtail, Giant plant response rating (0 to 100 scale) [6, 9]: 85
Foxtail, Giant plant response rating [6, 10]: 85
pest or weed control at 31 g/ha ([6]; Setaria faberi, post-emergence, postemergence, scale 0 to 100, 0 is no effect, 100 is complete control, read-out: Plant response rating, Foxtail, Giant): 80%
pest or weed control at 125 g/ha ([6]; Setaria faberi, post-emergence, Postemergence, scale 0 to 100 (0 no effect, 100 complete control), read-out: Plant response rating, Foxtail, Giant): 90%
pest or weed control at 250 g/ha ([6]; Setaria faberi, post-emergence, Postemergence, 250 g ai/ha, scale 0 to 100 (0 no effect, 100 complete control), read-out: Plant response rating, Foxtail, Giant): 95%
pest or weed control at 31 g/ha ([6]; Setaria faberi, pre-emergence, Preemergence, scale 0 to 100 (0 no effect, 100 complete control), read-out: Plant response rating, Foxtail, Giant): 5%
pest or weed control at 62 g/ha ([6]; Setaria faberi, pre-emergence, Preemergence, 62 g ai/ha, scale 0 to 100, 0 no effect, 100 complete control, read-out: Plant response rating, Foxtail, Giant): 40%
pest or weed control at 125 g/ha ([6]; Setaria faberi, pre-emergence, Preemergence, scale 0 to 100, 0 no effect, 100 complete control, read-out: Plant response rating, Foxtail, Giant): 60%
Goosegrass plant response rating (0 to 100 scale) [7, 9]: 75
pest or weed control at 31 g/ha ([7]; Eleusine indica, post-emergence, postemergence, scale 0 to 100, 0 is no effect, 100 is complete control, read-out: Plant response rating, Goosegrass): 70%
pest or weed control at 125 g/ha ([7]; Eleusine indica, post-emergence, Postemergence, scale 0 to 100 (0 no effect, 100 complete control), read-out: Plant response rating, Goosegrass): 85%
pest or weed control at 250 g/ha ([7]; Eleusine indica, post-emergence, Postemergence, 250 g ai/ha, scale 0 to 100 (0 no effect, 100 complete control), read-out: Plant response rating, Goosegrass): 90%
pest or weed control at 31 g/ha ([7]; Eleusine indica, pre-emergence, Preemergence, scale 0 to 100 (0 no effect, 100 complete control), read-out: Plant response rating, Goosegrass): 75%
pest or weed control at 62 g/ha ([7]; Eleusine indica, pre-emergence, Preemergence, 62 g ai/ha, scale 0 to 100, 0 no effect, 100 complete control, read-out: Plant response rating, Goosegrass): 90%
pest or weed control at 125 g/ha ([7]; Eleusine indica, pre-emergence, Preemergence, scale 0 to 100, 0 no effect, 100 complete control, read-out: Plant response rating, Goosegrass): 100%
Goosegrass plant response rating [7, 10]: 100
Foxtail, Green plant response rating (0 to 100 scale) [8, 9]: 80
Foxtail, Green plant response rating [8, 10]: 100
pest or weed control at 31 g/ha ([8]; Setaria viridis, post-emergence, 31 g ai/ha, postemergence, scale 0 to 100, 0 is no effect, 100 is complete control, read-out: Plant response rating, Foxtail, Green): 80%
pest or weed control at 125 g/ha ([8]; Setaria viridis, post-emergence, Postemergence, 125 g ai/ha, scale 0 to 100 (0 no effect, 100 complete control), read-out: Plant response rating, Foxtail, Green): 80%
pest or weed control at 250 g/ha ([8]; Setaria viridis, post-emergence, Postemergence, 250 g ai/ha, scale 0 to 100 (0 no effect, 100 complete control), read-out: Plant response rating, Foxtail, Green): 95%
